Source: ChEMBL document CHEMBL1201862, “PubChem BioAssay data set” (2004)
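Method: 48-hour compound exposure of cells in 96-well plates, five concentrations, linear interpolation of endpoints. GI50 marks 50% less growth.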 Active and inactive are the calls of the source. Cut-off read from the data, not from the text of the source: active = GI50 up to about 1.1 µM and inactive = higher.

Key:
Assay in all cases: NCI tumour cell line growth inhibition, 48 h
[1] = system: HCT-116
[2] = system: DU-145
[3] = system: Hs-578T
[4] = system: SN12C
[5] = system: SW-620
[6] = system: EKVX
[7] = system: OVCAR-3
[8] = system: A549
[9] = system: SNB-19
[10] = system: SK-OV-3
[11] = system: HOP-92
[12] = system: UACC-62
[13] = system: OVCAR-8
[14] = system: NCI-H522
[15] = system: K562
[16] = system: RPMI-8226
[17] = system: A498
[18] = system: CAKI-1
[19] = system: NCI-H226

Measured: GI50

O=[N+]([O-])c1ccc2c(c1)nc1n2C(c2c(F)cccc2F)SC1 (stereo unspecified)
inactive: [1] > 100 µM | [2] > 100 µM | [3] > 100 µM | [4] > 100 µM | [5] > 100 µM | [6] > 100 µM | [7] > 100 µM | [8] > 100 µM | [9] > 100 µM | [10] > 100 µM | [11] 62.1 µM | [12] > 100 µM | [13] > 100 µM | [14] > 100 µM | [15] > 100 µM | [16] > 100 µM

OC[C@H](O)[C@@H](OCc1ccccc1)[C@H](NCc1ccccc1)c1cccs1
inactive: [1] 99.5 µM | [2] > 100 µM | [4] > 100 µM | [5] > 100 µM | [6] > 100 µM | [7] > 100 µM | [8] > 100 µM | [9] 21.4 µM | [10] > 100 µM | [17] > 100 µM | [11] > 100 µM | [12] > 100 µM | [13] > 100 µM | [18] > 100 µM | [14] > 100 µM | [19] > 100 µM | [15] > 100 µM | [16] 92 µM

O=C(Cc1ccc([N+](=O)[O-])cc1)OCC#CCOC(=O)Cc1ccc([N+](=O)[O-])cc1
inactive: [3] > 10 µM | [4] > 10 µM | [5] > 10 µM | [6] > 10 µM | [7] > 10 µM | [8] > 10 µM | [9] > 10 µM | [10] > 10 µM | [11] > 10 µM | [12] > 10 µM | [13] > 10 µM | [14] > 10 µM | [15] > 10 µM

O=C(O)CCSc1nnc(COc2ccc(Cl)cc2)n1-c1ccccc1
inactive: [1] > 100 µM | [2] > 100 µM | [4] > 100 µM | [5] > 100 µM | [6] > 100 µM | [7] > 100 µM | [8] > 100 µM | [9] > 100 µM | [10] > 100 µM | [17] > 100 µM | [11] > 100 µM | [12] > 100 µM | [13] > 100 µM | [18] > 100 µM | [14] > 100 µM | [19] > 100 µM | [15] > 100 µM

C[C@H](C1CC2(C)OC2(C)C(=O)O1)[C@H]1CC[C@H]2[C@@H]3[C@@H]4O[C@@H]4[C@@]4(O)CC=CC(=O)[C@]4(C)[C@H]3CC[C@]12C (stereo partly specified)
inactive: [1] > 50 µM | [2] 16.9 µM | [4] > 50 µM | [5] > 50 µM | [6] > 50 µM | [7] > 50 µM | [8] > 50 µM | [9] 29.6 µM | [10] > 50 µM | [17] > 50 µM | [11] > 50 µM | [12] > 50 µM | [13] > 50 µM | [18] > 50 µM | [14] 36.6 µM | [19] > 50 µM | [15] > 50 µM | [16] > 50 µM

CC1=CCC[C@H]2[C@](C)(CC3=CC(=O)C4SCCSC4C3=O)[C@@H](C)CC[C@]12C (stereo partly specified)
inactive: [1] 13.8 µM | [2] 24.5 µM | [4] 14.7 µM | [5] 17.1 µM | [6] 21.3 µM | [7] 18.5 µM | [8] 17.2 µM | [9] 19 µM | [17] 16.1 µM | [11] 31.4 µM | [12] 14.8 µM | [13] 19.2 µM | [18] 25.2 µM | [19] 15.9 µM | [15] 19.9 µM | [16] 14.1 µM

Cc1cc2nc3c(C(OC4OC(CO)C(O)C(O)C4O)C(O)CO)nn(-c4ccc(F)cc4)c3nc2cc1C (stereo unspecified)
inactive: [1] > 100 µM | [4] > 100 µM | [6] > 100 µM | [7] > 100 µM | [9] > 100 µM | [10] > 100 µM | [17] > 100 µM | [12] > 100 µM | [13] > 100 µM | [14] > 100 µM | [15] > 100 µM | [16] > 100 µM

O=C1CCCc2cc3c(cc21)CCC3C(=O)O (stereo unspecified)
inactive: [1] > 100 µM | [2] > 100 µM | [3] > 100 µM | [4] > 100 µM | [5] > 100 µM | [6] > 100 µM | [8] > 100 µM | [9] > 100 µM | [10] > 100 µM | [12] > 100 µM | [13] > 100 µM | [18] > 100 µM | [14] > 100 µM | [19] > 100 µM | [15] > 100 µM | [16] > 100 µM
